# Test results reported in paper PMC5218480 (PLoS ONE, 2017).
# System: MV-4-11 cells
# Experiment: Gene expression microarray analysis (Affymetrix PrimeView) and GSEA
# Assay type: cell-based, human
# Design: RFU PODN (11730768_x_at) / Fold change /veh PODN (11730768_x_at) / RFU LINC00158 (11744669_a_at) / Fold change /veh LINC00158 (11744669_a_at) / RFU DUSP10 (11751237_a_at) / Fold change /veh DUSP10 (11751237_a_at) / RFU ID3 (11757404_x_at) / Fold change /veh ID3 (11757404_x_at) / RFU PLEKHG5 (11737974_s_at) / Fold change /veh PLEKHG5 (11737974_s_at) / RFU LRRC4B (11730491_at) / Fold change /veh LRRC4B (11730491_at) / RFU GIMAP4 (11747438_a_at) / Fold change /veh GIMAP4 (11747438_a_at) / RFU KRT8 (11758183_x_at) / Fold change /veh KRT8 (11758183_x_at) / RFU CNN1 (11734310_a_at) / Fold change /veh CNN1 (11734310_a_at) / RFU VPS37D (11726825_at) / Fold change /veh VPS37D (11726825_at) / RFU C10orf10 (11716522_x_at) / Fold change /veh C10orf10 (11716522_x_at) / RFU KIR2DL2 /// KIR2DL4 /// KIR2DL5A /// KIR2DL5B /// KIR2DS1 /// KIR2DS2 /// KIR2DS3 /// KIR2DS4 /// KIR3DL3 /// KIR3DL3 /// KIR3DS1 (11738374_at) / Fold change /veh KIR2DL2 /// KIR2DL4 /// KIR2DL5A /// KIR2DL5B /// KIR2DS1 /// KIR2DS2 /// KIR2DS3 /// KIR2DS4 /// KIR3DL3 /// KIR3DL3 /// KIR3DS1 (11738374_at) / RFU C1QL1 (11718748_at) / Fold change /veh C1QL1 (11718748_at) / RFU TMPRSS4 (11747572_a_at) / Fold change /veh TMPRSS4 (11747572_a_at) / RFU HAMP (11756126_x_at) / Fold change /veh HAMP (11756126_x_at) / RFU RNFT2 (11725882_a_at) / Fold change /veh RNFT2 (11725882_a_at) / RFU NR4A2 (11747474_a_at) / Fold change /veh NR4A2 (11747474_a_at) / RFU ABCC12 (11746883_a_at) / Fold change /veh ABCC12 (11746883_a_at) / RFU TMEM136 (11760407_x_at) / Fold change /veh TMEM136 (11760407_x_at) / RFU CLDN22 /// WWC2 (11732394_at) / Fold change /veh CLDN22 /// WWC2 (11732394_at) / RFU HLA-DPB1 (11760878_x_at) / Fold change /veh HLA-DPB1 (11760878_x_at) / RFU SPINT1 (11716480_a_at) / Fold change /veh SPINT1 (11716480_a_at) / RFU GAP43 (11754022_s_at) / Fold change /veh GAP43 (11754022_s_at) / RFU A4GNT (11735810_at) / Fold change /veh A4GNT (11735810_at) / RFU PRB3 (11715151_x_at) / Fold change /veh PRB3 (11715151_x_at) / RFU TUBB4B (11761932_at) / Fold change /veh TUBB4B (11761932_at) / RFU CAPN14 (11732068_a_at) / Fold change /veh CAPN14 (11732068_a_at) / RFU TMCC2 (11721928_a_at) / Fold change /veh TMCC2 (11721928_a_at) / RFU IRGQ (11745062_a_at) / Fold change /veh IRGQ (11745062_a_at) / RFU FAM174B (11720279_a_at) / Fold change /veh FAM174B (11720279_a_at) / RFU TMPRSS4 (11748680_a_at) / Fold change /veh TMPRSS4 (11748680_a_at) / RFU FAM212B (11763350_a_at) / Fold change /veh FAM212B (11763350_a_at) / RFU PLEKHG5 (11743358_a_at) / Fold change /veh PLEKHG5 (11743358_a_at) / RFU ZSCAN30 (11745921_a_at) / Fold change /veh ZSCAN30 (11745921_a_at) / RFU CMKLR1 (11741424_a_at) / Fold change /veh CMKLR1 (11741424_a_at) / RFU LOC101060620 /// MAPK8IP1 (11723275_at) / Fold change /veh LOC101060620 /// MAPK8IP1 (11723275_at) / RFU SPTSSB (11747773_x_at) / Fold change /veh SPTSSB (11747773_x_at) / RFU PRSS12 (11739890_at) / Fold change /veh PRSS12 (11739890_at) / RFU BIN1 (11741810_x_at) / Fold change /veh BIN1 (11741810_x_at) / RFU WNT11 (11732464_a_at) / Fold change /veh WNT11 (11732464_a_at) / RFU C10orf10 (11716521_a_at) / Fold change /veh C10orf10 (11716521_a_at) / RFU C5orf56 (11738089_at) / Fold change /veh C5orf56 (11738089_at) / RFU CYB561 (11721691_x_at) / Fold change /veh CYB561 (11721691_x_at) / RFU ANKRD19P (11752326_a_at) / Fold change /veh ANKRD19P (11752326_a_at) / RFU OR2T12 /// OR2T33 /// OR2T8 (11738714_s_at) / Fold change /veh OR2T12 /// OR2T33 /// OR2T8 (11738714_s_at) / RFU VCAN (11748164_a_at) / Fold change /veh VCAN (11748164_a_at) / RFU JSRP1 (11732532_at) / Fold change /veh JSRP1 (11732532_at) / RFU KRTAP10-11 (11738290_x_at) / Fold change /veh KRTAP10-11 (11738290_x_at) / RFU MYO3A (11730013_a_at) / Fold change /veh MYO3A (11730013_a_at) / RFU EBF3 (11725865_a_at) / Fold change /veh EBF3 (11725865_a_at) / RFU CAMK2N1 (11719241_x_at) / Fold change /veh CAMK2N1 (11719241_x_at) / RFU C5orf56 (11738088_a_at) / Fold change /veh C5orf56 (11738088_a_at) / RFU OLFML3 (11715873_a_at) / Fold change /veh OLFML3 (11715873_a_at) / RFU LOC100653217 /// NTM (11731650_a_at) / Fold change /veh LOC100653217 /// NTM (11731650_a_at) / RFU MAPK11 (11762145_a_at) / Fold change /veh MAPK11 (11762145_a_at) / RFU FIZ1 (11724087_x_at) / Fold change /veh FIZ1 (11724087_x_at) / RFU OASL (11726364_x_at) / Fold change /veh OASL (11726364_x_at) / RFU SOX15 (11748057_x_at) / Fold change /veh SOX15 (11748057_x_at) / RFU CD79A (11719716_a_at) / Fold change /veh CD79A (11719716_a_at) / RFU HIST1H1D (11736915_at) / Fold change /veh HIST1H1D (11736915_at) / RFU CASKIN2 (11723855_a_at) / Fold change /veh CASKIN2 (11723855_a_at) / RFU LOC730098 (11760151_x_at) / Fold change /veh LOC730098 (11760151_x_at) / RFU OR4N2 (11742367_at) / Fold change /veh OR4N2 (11742367_at) / RFU PRRT2 (11749266_a_at) / Fold change /veh PRRT2 (11749266_a_at) / RFU SNX32 (11753110_a_at) / Fold change /veh SNX32 (11753110_a_at) / RFU CDHR5 (11726645_a_at) / Fold change /veh CDHR5 (11726645_a_at) / RFU RCAN1 (11760418_a_at) / Fold change /veh RCAN1 (11760418_a_at) / RFU FAM167A (11723789_a_at) / Fold change /veh FAM167A (11723789_a_at) / RFU FAM26E (11764081_at) / Fold change /veh FAM26E (11764081_at) / RFU ISYNA1 (11749810_s_at) / Fold change /veh ISYNA1 (11749810_s_at) / RFU ACY1 (11761880_at) / Fold change /veh ACY1 (11761880_at) / RFU 11764098_at / Fold change /veh 11764098_at / RFU SAMD14 (11745864_x_at) / Fold change /veh SAMD14 (11745864_x_at) / RFU NPB (11741838_a_at) / Fold change /veh NPB (11741838_a_at) / RFU TMPRSS6 (11731388_a_at) / Fold change /veh TMPRSS6 (11731388_a_at) / RFU KRTAP10-2 (11738614_at) / Fold change /veh KRTAP10-2 (11738614_at) / RFU ARHGAP8 /// PRR5-ARHGAP8 (11727945_x_at) / Fold change /veh ARHGAP8 /// PRR5-ARHGAP8 (11727945_x_at) / RFU KRTAP5-7 /// NADSYN1 (11734609_at) / Fold change /veh KRTAP5-7 /// NADSYN1 (11734609_at) / RFU RASL12 (11751679_a_at) / Fold change /veh RASL12 (11751679_a_at) / RFU CDKN2B (11736163_a_at) / Fold change /veh CDKN2B (11736163_a_at) / RFU PRF1 (11729649_at) / Fold change /veh PRF1 (11729649_at) / RFU, ZNF638 /// ZNF638-IT1 / Fold change vs veh, ZNF638 /// ZNF638-IT1 / RFU, PANK3 / Fold change vs veh, PANK3 / RFU, SH3YL1 / Fold change vs veh, SH3YL1 / RFU, ZEB2 / Fold change vs veh, ZEB2 / RFU, NRIP1 / Fold change vs veh, NRIP1 / RFU, PTTG1IP / Fold change vs veh, PTTG1IP / RFU, CAPN2 / Fold change vs veh, CAPN2 / RFU, MED14 / Fold change vs veh, MED14 / RFU, SNORA58 / Fold change vs veh, SNORA58 / RFU, C1orf63 / Fold change vs veh, C1orf63 / RFU, LRRFIP1 / Fold change vs veh, LRRFIP1 / RFU, NDUFAF7 / Fold change vs veh, NDUFAF7 / RFU, SLC12A2 / Fold change vs veh, SLC12A2 / RFU, IBTK / Fold change vs veh, IBTK / RFU, ESF1 / Fold change vs veh, ESF1 / Fold change vs veh, TMEM50B / RFU, TAOK1 / Fold change vs veh, TAOK1 / RFU, ACBD3 / Fold change vs veh, ACBD3 / RFU, TMA16 / Fold change vs veh, TMA16 / RFU, RWDD3 / Fold change vs veh, RWDD3 / RFU, BCAT1 / Fold change vs veh, BCAT1 / RFU, EDEM3 / Fold change vs veh, EDEM3 / RFU, TMEM33 / Fold change vs veh, TMEM33 / RFU, WDR75 / Fold change vs veh, WDR75 / RFU, AHCTF1 / Fold change vs veh, AHCTF1 / RFU, TFRC / Fold change vs veh, TFRC / RFU, ZDHHC17 / Fold change vs veh, ZDHHC17 / RFU, NOM1 / Fold change vs veh, NOM1 / RFU, ARL8B / Fold change vs veh, ARL8B / RFU, ZBTB11 / Fold change vs veh, ZBTB11 / RFU, TAMM41 / Fold change vs veh, TAMM41 / RFU, KIAA1704 /// LOC100996395 / Fold change vs veh, KIAA1704 /// LOC100996395 / RFU, ING1 / Fold change vs veh, ING1 / RFU, TRMT61B / Fold change vs veh, TRMT61B / RFU, FUBP3 / Fold change vs veh, FUBP3 / RFU, TP53 / Fold change vs veh, TP53 / RFU, TNKS2 / Fold change vs veh, TNKS2 / RFU, ZFP14 / Fold change vs veh, ZFP14 / RFU, ACTR2 / Fold change vs veh, ACTR2 / RFU, PPP3R1 / Fold change vs veh, PPP3R1 / RFU, PIK3R1 / Fold change vs veh, PIK3R1 / RFU, HNRNPA1 / Fold change vs veh, HNRNPA1 / RFU, RNF170 / Fold change vs veh, RNF170 / RFU, ZNF28 / Fold change vs veh, ZNF28 / RFU, RNGTT / Fold change vs veh, RNGTT / RFU, OGT / Fold change vs veh, OGT / RFU, BRD1 / Fold change vs veh, BRD1 / RFU, MARS / Fold change vs veh, MARS / RFU, ZNF655 / Fold change vs veh, ZNF655 / RFU, FAHD1 / Fold change vs veh, FAHD1 / RFU, BDP1 / Fold change vs veh, BDP1 / RFU, LRRCC1 / Fold change vs veh, LRRCC1 / RFU, ARID1A / Fold change vs veh, ARID1A / RFU, ZNF146 / Fold change vs veh, ZNF146 / RFU, ZNF330 / Fold change vs veh, ZNF330 / RFU, GPN3 / Fold change vs veh, GPN3 / RFU, C9orf123 / Fold change vs veh, C9orf123 / RFU, N4BP2L2 / Fold change vs veh, N4BP2L2 / RFU, ARFIP1 / Fold change vs veh, ARFIP1 / RFU, FAM179B / Fold change vs veh, FAM179B / RFU, BCL10 / Fold change vs veh, BCL10 / RFU, UHRF1BP1L / Fold change vs veh, UHRF1BP1L / RFU, BET1 / Fold change vs veh, BET1 / RFU, CNOT2 / Fold change vs veh, CNOT2 / RFU, ZNF268 / Fold change vs veh, ZNF268 / Fold change vs veh, ZNF507 / RFU, DGCR2 / Fold change vs veh, DGCR2 / RFU, WDSUB1 / Fold change vs veh, WDSUB1 / Fold change vs veh, HSP90B1 /// MIR3652 / RFU, ADSS / Fold change vs veh, ADSS / RFU, GK / Fold change vs veh, GK / RFU, ZNF148 / Fold change vs veh, ZNF148 / RFU, TAF9 / Fold change vs veh, TAF9 / RFU, SLC1A5 / Fold change vs veh, SLC1A5 / RFU, SLMO2 / Fold change vs veh, SLMO2 / RFU, ABCC4 / Fold change vs veh, ABCC4 / RFU, LOC101060439 /// RAP1B / Fold change vs veh, LOC101060439 /// RAP1B / RFU, RFX7 / Fold change vs veh, RFX7 / RFU, GTPBP10 / Fold change vs veh, GTPBP10 / RFU, CNEP1R1 / Fold change vs veh, CNEP1R1 / RFU, BIVM-ERCC5 /// ERCC5 / Fold change vs veh, BIVM-ERCC5 /// ERCC5 / RFU, ILF3 / Fold change vs veh, ILF3 / RFU 11762660_at / Fold change /veh 11762660_at / RFU VCAN (11757783_s_at) / Fold change /veh VCAN (11757783_s_at) / RFU DDX43 (11728927_at) / Fold change /veh DDX43 (11728927_at) / RFU KRT8 (11758188_x_at) / Fold change /veh KRT8 (11758188_x_at) / RFU NKD1 (11759106_at) / Fold change /veh NKD1 (11759106_at) / RFU SRD5A1 (11742802_a_at) / Fold change /veh SRD5A1 (11742802_a_at) / RFU TPSAB1 /// TPSB2 (11721975_s_at) / Fold change /veh TPSAB1 /// TPSB2 (11721975_s_at) / RFU GSTM3 (11746129_a_at) / Fold change /veh GSTM3 (11746129_a_at) / RFU IL23R (11737362_x_at) / Fold change /veh IL23R (11737362_x_at) / RFU TMEM51 (11727254_a_at) / Fold change /veh TMEM51 (11727254_a_at) / RFU PIWIL2 (11732686_x_at) / Fold change /veh PIWIL2 (11732686_x_at) / RFU ORM1 (11744905_x_at) / Fold change /veh ORM1 (11744905_x_at) / RFU CCDC152 (11743942_at) / Fold change /veh CCDC152 (11743942_at) / RFU ECM1 (11717891_a_at) / Fold change /veh ECM1 (11717891_a_at) / RFU IL23R (11748794_a_at) / Fold change /veh IL23R (11748794_a_at) / RFU TNFAIP8L3 (11732012_x_at) / Fold change /veh TNFAIP8L3 (11732012_x_at) / RFU MBOAT4 (11741988_at) / Fold change /veh MBOAT4 (11741988_at) / RFU 11764193_at / Fold change /veh 11764193_at / RFU TMEM53 (11763286_at) / Fold change /veh TMEM53 (11763286_at) / RFU MAGEB2 (11727129_at) / Fold change /veh MAGEB2 (11727129_at) / RFU TMEM200A (11744735_a_at) / Fold change /veh TMEM200A (11744735_a_at) / RFU CCDC152 (11751479_a_at) / Fold change /veh CCDC152 (11751479_a_at) / RFU FAM211A (11726209_a_at) / Fold change /veh FAM211A (11726209_a_at) / RFU RGS16 (11746705_a_at) / Fold change /veh RGS16 (11746705_a_at) / RFU VCAN (11755009_s_at) / Fold change /veh VCAN (11755009_s_at) / RFU RHOB (11743442_s_at) / Fold change /veh RHOB (11743442_s_at) / RFU RGS16 (11720943_a_at) / Fold change /veh RGS16 (11720943_a_at) / RFU RGS16 (11720944_at) / Fold change /veh RGS16 (11720944_at) / RFU, VPS4B / Fold change vs veh, VPS4B / RFU, CREB1 / Fold change vs veh, CREB1 / RFU, DNAJC13 / Fold change vs veh, DNAJC13 / RFU, GNAQ / Fold change vs veh, GNAQ / RFU, CDK5R1 / Fold change vs veh, CDK5R1 / RFU, ZRANB3 / Fold change vs veh, ZRANB3 / RFU, CUL4A / Fold change vs veh, CUL4A / RFU, CCNY / Fold change vs veh, CCNY / RFU, UFL1 / Fold change vs veh, UFL1 / RFU, COG3 / Fold change vs veh, COG3 / RFU, DIAPH2 / Fold change vs veh, DIAPH2 / RFU, SKA2 / Fold change vs veh, SKA2 / RFU, AFF3 / Fold change vs veh, AFF3 / RFU, LMF1 / Fold change vs veh, LMF1 / RFU, IPO11 / Fold change vs veh, IPO11 / RFU, DFFB / Fold change vs veh, DFFB / RFU, FOXP1 / Fold change vs veh, FOXP1 / RFU, CARD8 / Fold change vs veh, CARD8 / RFU, STRN3 / Fold change vs veh, STRN3 / RFU, ADK / Fold change vs veh, ADK / RFU, RASSF2 / Fold change vs veh, RASSF2 / RFU, WIPF1 / Fold change vs veh, WIPF1 / RFU, LARP1B / Fold change vs veh, LARP1B / RFU, RASA1 / Fold change vs veh, RASA1 / RFU, RB1 / Fold change vs veh, RB1 / RFU, PPFIA1 / Fold change vs veh, PPFIA1 / RFU, MAT2A / Fold change vs veh, MAT2A / RFU, CCT5 / Fold change vs veh, CCT5 / RFU, WDR92 / Fold change vs veh, WDR92 / RFU, CUX1 / Fold change vs veh, CUX1 / RFU, TTC7A / Fold change vs veh, TTC7A / RFU, TMEM135 / Fold change vs veh, TMEM135 / RFU, DEPTOR / Fold change vs veh, DEPTOR / RFU, CPM / Fold change vs veh, CPM / RFU, DNAJB6 / Fold change vs veh, DNAJB6 / RFU, CACNA2D3 / Fold change vs veh, CACNA2D3 / RFU, DTX4 / Fold change vs veh, DTX4 / RFU, TFCP2 / Fold change vs veh, TFCP2 / RFU, GMCL1 /// GMCL1P1 / Fold change vs veh, GMCL1 /// GMCL1P1 / RFU, AEBP2 / Fold change vs veh, AEBP2 / RFU, SNHG1 /// SNORD22 /// SNORD25 /// SNORD26 /// SNORD27 /// SNORD28 /// SNORD29 /// SNORD31 / Fold change vs veh, SNHG1 /// SNORD22 /// SNORD25 /// SNORD26 /// SNORD27 /// SNORD28 /// SNORD29 /// SNORD31 / Fold change (Aza/veh), C12orf56 (ProbeSet 11735607_a_at) / Fold change (ACY-1035/veh), C12orf56 (ProbeSet 11735607_a_at) / Fold change (Aza/veh), FGFR1OP (ProbeSet 11751329_s_at) / Fold change (ACY-1035/veh), FGFR1OP (ProbeSet 11751329_s_at) / Fold change (Aza/veh), VPS36 (ProbeSet 11739960_a_at) / Fold change (ACY-1035/veh), VPS36 (ProbeSet 11739960_a_at) / RFU SYPL1 (11715823_x_at) / Fold change /veh SYPL1 (11715823_x_at) / RFU IGFBP7 (11715501_s_at) / Fold change /veh IGFBP7 (11715501_s_at) / RFU REEP3 (11722064_at) / Fold change /veh REEP3 (11722064_at) / RFU IGLL1 (11728026_x_at) / Fold change /veh IGLL1 (11728026_x_at): dose or concentration left out as unconfirmed
# Settings: MV-4-11 cells, 48 hours
compound,measurement,value
Nc1ncn([C@@H]2O[C@H](CO)[C@@H](O)[C@H]2O)c(=O)n1 [azacitidine],Fold change /veh CDKN2B (11736163_a_at),1.08
